{"source": "patent US11332455B2", "about": "“α,β-unsaturated amide compound” (KYOWA KIRIN CO., LTD., priority 2015, dated 2022)", "data": [{"system": "NCI-H226 cells, a human mesothelioma cell line", "assay": "Cell growth inhibitory effect, cell counting kit 8, 6 days", "type": "cell-based", "conditions": "144 h, 6 days incubation, group 100 nmol/L to 1 μmol/L (upper bound given in μmol/L)", "text": "(§1) Cell growth inhibitory effect on human mesothelioma, human liver cancer, human ovarian cancer, and […]\n(§2) NCI-H226 cells, a human mesothelioma cell line (ATCC, CRL-5826), NCI-H322 cells, a human lung cancer cell line (the European Collection of Authenticated Cell Cultures, 95111734), OVTOKO cells, a human ovarian cancer cell line (JCRB cell bank, JCRB1048) and HuH28, a human liver cancer cell line (JCRB cell bank, JCRB0426) were each subcultured by keeping the cell density under 80% in a RPMI1640 culture medium with 10% fetal bovine serum (FBS). NCI-H226 cells, NCI-H322 cells and SSP-25 cells were each suspended in the RPM11640 culture medium mentioned above, and plated to a 96-well flat-bottom plate at 500 cells/well in each well, and incubated at 37° C. in an incubator with 5% CO2 for one day. After the incubation, the evaluation of cell growth inhibitory activity was started. OVTOKO cells were suspended in the RPMI1640 culture medium mentioned above, and plated to a 96-well flat-bottom plate at 250 cells/well in each well, and incubated it at 37° C. in an incubator with 5% CO2 for one day. After the incubation, the evaluation of the cell growth inhibitory activity was started. The next day, a test compound was serially diluted to 5 times of its final concentration in the RPM11640 culture medium mentioned above, and the diluted solution was added to each well. In this case, the final concentration of DMSO in each well was adjusted to 0.1%. After the test compound was added, cells were incubated at 37° C. in an incubator with 5% CO2 for 6 days. At the addition of the test compound and 6 days after the addition, the cell counting measurement was performed using a cell counting kit 8 (made by DOJINDO) according to a protocol equivalent to DOJINDO's recommendation. A reagent contained in the kit was added to each plate and color reaction was performed for 2 or 3 hours at 37° C. in an incubator with 5% CO2. After the reaction, an absorbance at wavelength of 450 nm was measured using a microplate reader. A growth inhibition rate was calculated according to the following formula, from which the concentration of a test compound at which cell growth was inhibited by 50% (GI50 value) was determined.", "units": {"GI50": "nM"}, "values": [{"smiles": "C=CC(=O)NC1COc2c(cc(Br)cc2Oc2ccc(C(F)(F)F)nc2)C1", "note": "(racemic) [Compound 153, N-(6-Bromo-8-[{6-(trifluoromethyl)pyridin-3-yl}oxy]chroman-3-yl) acrylamide]", "GI50": "100 to 1000"}, {"smiles": "C=CC(=O)N[C@H]1CC[C@@H](Oc2ccccc2)c2ncccc21", "note": "(relative stereo) [Compound 67, cis-N-(8-Phenoxy-5,6,7,8-tetrahydroquinolin-5-yl)acrylamide]", "GI50": "100 to 1000"}, {"smiles": "C=CC(=O)N[C@H]1CC[C@H](Oc2ccc(Cl)cc2)c2nc(OC)ccc21", "note": "(relative stereo) [Compound 81, trans-N-{8-(4-Chlorophenoxy)-2-methoxy-5,6,7,8-tetrahydroquinolin-5-yl}acrylamide]", "GI50": "100 to 1000"}, {"smiles": "C=CC(=O)N[C@H]1CC[C@@H](Oc2cnc(Cl)c(Cl)c2)c2nc(Cl)ccc21", "note": "(relative stereo) [Compound 181, cis-N-[2-Chloro-8-{(5,6-dichloropyridin-3-yl)oxy}-5,6,7,8-tetrahydroquinolin-5-yl]acrylamide]", "GI50": "100 to 1000"}, {"smiles": "C=CC(=O)N[C@H]1CC[C@@H](Oc2ccc(C(F)(F)F)cc2)c2nc(CC)ccc21", "note": "(relative stereo) [Compound 186, cis-N-[2-ethyl-8-{4-(trifluoromethyl)phenoxy}-5,6,7,8-tetrahydroquinolin-5-yl]acrylamide]", "GI50": "100 to 1000"}, {"smiles": "C=CC(=O)NC1CCOc2cc(OCc3ccccc3)ccc21", "note": "(stereo not drawn) [Compound 14, N-{7-(Benzyloxy)chroman-4-yl}acrylamide]", "GI50": "100 to 1000"}, {"smiles": "C=CC(=O)NC1CCOc2cc(OCC3CCCCC3)ccc21", "note": "(stereo not drawn) [Compound 16, N-{7-(Cyclohexylmethoxy)chroman-4-yl}acrylamide]", "GI50": "100 to 1000"}, {"smiles": "C=CC(=O)NC1CCOc2cc(Oc3ccc(Cl)cc3)c(C)cc21", "note": "(stereo not drawn) [Compound 23, N-{7-(4-Chlorophenoxy)-6-methylchroman-4-yl}acrylamide]", "GI50": "100 to 1000"}, {"smiles": "C=CC(=O)NC1CCOc2ccc(Oc3ccc(Cl)cc3)cc21", "note": "(stereo not drawn) [Compound 24, N-{6-(4-Chlorophenoxy)chroman-4-yl}acrylamide]", "GI50": "100 to 1000"}, {"smiles": "C=CC(=O)NCC1CCOc2cc(Oc3ccc(Cl)cc3)ccc21", "note": "(stereo not drawn) [Compound 26, N-[{7-(4-Chlorophenoxy)chroman-4-yl}methyl]acrylamide]", "GI50": "100 to 1000"}, {"smiles": "Cc1c(Oc2ccc(C(F)(F)F)cc2)ccc2c1OCCC2NC(=O)/C=C/C(F)(F)F", "note": "(stereo not drawn) [Compound 29, (E)-4,4,4-Trifluoro-N-[8-methyl-7-{4-(trifluoromethyl)phenoxy}chroman-4-yl]-2-butenamide]", "GI50": "100 to 1000"}, {"smiles": "C=CC(=O)NC1COc2c(cccc2Oc2ccc(Cl)nc2)C1", "note": "(stereo not drawn) [Compound 49, N-[8-{(6-Chloropyridin-3-yl)oxy}chroman-3-yl]acrylamide]", "GI50": "100 to 1000"}, {"smiles": "C=CC(=O)Nc1cnc(C)c(Oc2ccc(Cl)cc2)c1", "note": "[Compound 92, N-{5-(4-Chlorophenoxy)-6-methylpyridin-3-yl}acrylamide]", "GI50": "100 to 1000"}, {"smiles": "C=CC(=O)Nc1cc(Oc2ccc(Cl)cc2)cnc1C", "note": "[Compound 93, N-{5-(4-Chlorophenoxy)-2-methylpyridin-3-yl}acrylamide]", "GI50": "100 to 1000"}, {"smiles": "C=CC(=O)Nc1cncc(Oc2ccc(Cl)cc2)c1", "note": "[Compound 94, N-{5-(4-chlorophenoxy)pyridin-3-yl}acrylamide]", "GI50": "100 to 1000"}, {"smiles": "C=CC(=O)Nc1cncc(Oc2cccc(OCC)c2)c1", "note": "[Compound 101, N-{5-(3-Ethoxyphenoxy)pyridin-3-yl}acrylamide]", "GI50": "100 to 1000"}, {"smiles": "C=CC(=O)Nc1cncc(Oc2ccc(OCC)cc2)c1", "note": "[Compound 102, N-{5-(4-Ethoxyphenoxy)pyridin-3-yl}acrylamide]", "GI50": "100 to 1000"}, {"smiles": "C=CC(=O)Nc1cncc(Oc2ccc(OC(C)C)cc2)c1", "note": "[Compound 103, N-{5-(4-Isopropoxyphenoxy)pyridin-3-yl}acrylamide]", "GI50": "100 to 1000"}, {"smiles": "C=CC(=O)Nc1cncc(Oc2ccc(Cl)c(Cl)c2)c1", "note": "[Compound 105, N-{5-(3,4-Dichlorophenoxy)pyridin-3-yl}acrylamide]", "GI50": "100 to 1000"}, {"smiles": "C=CC(=O)Nc1ccc(Oc2ccc(Cl)cc2)c2ncccc12", "note": "[Compound 116, N-{8-(4-Chlorophenoxy)quinolin-5-yl}acrylamide]", "GI50": "100 to 1000"}, {"smiles": "C=CC(=O)Nc1ccc(OC2CCC(F)(F)CC2)c2ncccc12", "note": "[Compound 120, N-[8-{(4,4-Difluorocyclohexyl)oxy}quinolin-5-yl]acrylamide]", "GI50": "100 to 1000"}, {"smiles": "C=CC(=O)Nc1ccc(OCc2ccccc2)c2ncccc12", "note": "[Compound 123, N-{8-(Benzyloxy)quinolin-5-yl}acrylamide]", "GI50": "100 to 1000"}]}, {"system": "NCI-H226 cells, a human mesothelioma cell line", "assay": "Cell growth inhibitory effect, cell counting kit 8, 6 days", "type": "cell-based", "conditions": "144 h, 6 days incubation, group less than 100 nmol/L", "text": "as §1, §2", "units": {"GI50": "nM"}, "values": [{"smiles": "C=CC(=O)N[C@H]1C[C@@H](C)Oc2cc(Oc3ccc(C(F)(F)F)cc3)ccc21", "note": "(relative stereo) [Compound 19, cis-N-[2-Methyl-7-{4-(trifluoromethyl)phenoxy}chroman-4-yl]acrylamide]", "GI50": "< 100"}, {"smiles": "C=CC(=O)N[C@H]1C[C@H](C)Oc2cc(Oc3ccc(C(F)(F)F)cc3)ccc21", "note": "(relative stereo) [Compound 20, trans-N-[2-Methyl-7-{4-(trifluoromethyl)phenoxy}chroman-4-yl]acrylamide]", "GI50": "< 100"}, {"smiles": "C=CC(=O)NC1CCOc2cc(Oc3ccccc3)ccc21", "note": "(stereo not drawn) [Compound 1, N-(7-phenoxychroman-4-yl)acrylamide]", "GI50": "< 100"}, {"smiles": "C=CC(=O)NC1CCOc2cc(Oc3ccc(Cl)cc3)ccc21", "note": "(stereo not drawn) [Compound 3, N-{7-(4-Chlorophenoxy)chroman-4-yl}acrylamide]", "GI50": "< 100"}, {"smiles": "C=CC(=O)NC1CCOc2cc(Oc3ccc(C(F)(F)F)c(Cl)n3)ccc21", "note": "(stereo not drawn) [Compound 11, N-(7-[{6-Chloro-5-(trifluoromethyl)pyridin-2-yl}oxy]chroman-4-yl)acrylamide]", "GI50": "< 100"}, {"smiles": "C=CC(=O)NC1CCOc2c1ccc(Oc1ccc(Cl)cc1)c2F", "note": "(stereo not drawn) [Compound 30, N-{7-(4-Chlorophenoxy)-8-fluorochroman-4-yl}acrylamide]", "GI50": "< 100"}, {"smiles": "C=CC(=O)NC1COc2cccc(Oc3ccc(Cl)cc3)c2C1", "note": "(stereo not drawn) [Compound 34, N-{5-(4-Chlorophenoxy)chroman-3-yl}acrylamide]", "GI50": "< 100"}, {"smiles": "C=CC(=O)NC1COc2c(Oc3ccc(Cl)cc3)cccc2C1=O", "note": "(stereo not drawn) [Compound 39, N-{8-(4-Chlorophenoxy)-4-oxochroman-3-yl}acrylamide]", "GI50": "< 100"}, {"smiles": "C=CC(=O)NC1COc2c(cccc2Oc2cccc(C(F)(F)F)c2)C1", "note": "(stereo not drawn) [Compound 43, N-[8-{3-(Trifluoromethyl)phenoxy}chroman-3-yl]acrylamide]", "GI50": "< 100"}, {"smiles": "C=CC(=O)NC1COc2c(cccc2Oc2ccc(C(F)(F)F)cc2)C1", "note": "(stereo not drawn) [Compound 44, N-[8-{4-(Trifluoromethyl)phenoxy}chroman-3-yl]acrylamide]", "GI50": "< 100"}, {"smiles": "C=CC(=O)NC1COc2c(cccc2Oc2ccc(C(F)(F)F)cn2)C1", "note": "(stereo not drawn) [Compound 50, N-(8-[{5-(Trifluoromethyl)pyridin-2-yl}oxy]chroman-3-yl)acrylamide]", "GI50": "< 100"}, {"smiles": "C=CC(=O)NC1COc2c(cccc2Oc2cnc(Cl)c(C)c2)C1", "note": "(stereo not drawn) [Compound 56, N-[8-{(6-Chloro-5-methylpyridin-3-yl)oxy}chroman-3-yl]acrylamide]", "GI50": "< 100"}, {"smiles": "C=CC(=O)Nc1cncc(Oc2ccc(OC(F)(F)F)cc2)c1", "note": "[Compound 100, N-[5-{4-(Trifluoromethoxy)phenoxy}pyridin-3-yl]acrylamide]", "GI50": "< 100"}, {"smiles": "C=CC(=O)NCc1ccc(Oc2cccc(Cl)c2)c2ncccc12", "note": "[Compound 133, N-[{8-(3-chlorophenoxy)quinolin-5-yl}methyl]acrylamide]", "GI50": "< 100"}]}]}
